Measured values taken from PubChem BioAssay AID2060624 (Molecular Pharmacology Branch, DTP, NCI, 2025).
pIC50: −log10 of the molar value.

Tested on: 217524-143-R1-J4-PDC spheroids with HUVEC/MSC, viability
Test: Anticancer human tumor 217524-143-R1-J4-PDC patient-derived pancreatic carcinoma cell line growth inhibition [CLK]
Settings: for pIC50: curve of first compound; for viability, T/C: stronger effect = lower value
Procedure, shortened: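 Multi-cell-type spheroids combined patient-derived tumor cells with HUVEC endothelial cells and human mesenchymal stem cells. Paired agents were dosed in half-log steps down from about clinical Cmax, or from 10 microM where Cmax was unknown.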

[1] = second compound 0.0316 µM, first compound 0.0316 µM
[2] = second compound 0.0316 µM, first compound 0.1 µM
[3] = second compound 0.0316 µM, first compound 0.316 µM
[4] = second compound 0.0316 µM, first compound 1 µM
[5] = second compound 0.0316 µM, first compound 3.16 µM
[6] = second compound 0.0316 µM, first compound 10 µM
[7] = second compound 0.1 µM, first compound 0.0316 µM
[8] = second compound 0.1 µM, first compound 0.1 µM
[9] = second compound 0.1 µM, first compound 0.316 µM
[10] = second compound 0.1 µM, first compound 1 µM
[11] = second compound 0.1 µM, first compound 3.16 µM
[12] = second compound 0.1 µM, first compound 10 µM
[13] = second compound 0.316 µM, first compound 0.0316 µM
[14] = second compound 0.316 µM, first compound 0.1 µM
[15] = second compound 0.316 µM, first compound 0.316 µM
[16] = second compound 0.316 µM, first compound 1 µM
[17] = second compound 0.316 µM, first compound 3.16 µM
[18] = second compound 0.316 µM, first compound 10 µM
[19] = second compound 1 µM, first compound 0.0316 µM
[20] = second compound 1 µM, first compound 0.1 µM
[21] = second compound 1 µM, first compound 0.316 µM
[22] = second compound 1 µM, first compound 1 µM
[23] = second compound 1 µM, first compound 3.16 µM
[24] = second compound 1 µM, first compound 10 µM
[25] = second compound 3.16 µM, first compound 0.0316 µM
[26] = second compound 3.16 µM, first compound 0.1 µM
[27] = second compound 3.16 µM, first compound 0.316 µM
[28] = second compound 3.16 µM, first compound 1 µM
[29] = second compound 3.16 µM, first compound 3.16 µM
[30] = second compound 3.16 µM, first compound 10 µM
[31] = second compound 10 µM, first compound 0.0316 µM
[32] = second compound 10 µM, first compound 0.1 µM
[33] = second compound 10 µM, first compound 0.316 µM
[34] = second compound 10 µM, first compound 1 µM
[35] = second compound 10 µM, first compound 3.16 µM
[36] = second compound 10 µM, first compound 10 µM
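Further: spheroids exposed to agents for seven days before reading.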
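Wherever viability, T/C is given: 100% = DMSO vehicle control viability.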

## CC(=O)O[C@H]1C(=O)[C@@]2(C)[C@H]([C@H](OC(=O)c3ccccc3)[C@]3(O)C[C@H](OC(=O)[C@H](O)[C@@H](NC(=O)c4ccccc4)c4ccccc4)C(C)=C1C3(C)C)[C@]1(OC(C)=O)CO[C@@H]1C[C@@H]2O + CNC(=O)c1ccc(Nc2nc(OC3CCCC3)c3c(-c4ccc5nc(C)oc5c4)c[nH]c3n2)c(OC)c1
Second compound 0.0316 µM
  pIC50: > 7.50
Second compound 0.1 µM
  pIC50: > 7.50
Second compound 0.316 µM
  pIC50: > 7.50
Second compound 1 µM
  pIC50: > 7.50
Second compound 3.16 µM
  pIC50: > 7.50
Second compound 10 µM
  pIC50: > 7.50
[1]
  viability, T/C: 19.7%
[2]
  viability, T/C: 14.3%
[3]
  viability, T/C: 16.9%
[4]
  viability, T/C: 16.6%
[5]
  viability, T/C: 25.4%
[6]
  viability, T/C: 30.8%
[7]
  viability, T/C: 31.3%
[8]
  viability, T/C: 26.3%
[9]
  viability, T/C: 31.9%
[10]
  viability, T/C: 28%
[11]
  viability, T/C: 33.3%
[12]
  viability, T/C: 43.4%
[13]
  viability, T/C: 34.9%
[14]
  viability, T/C: 30.4%
[15]
  viability, T/C: 37%
[16]
  viability, T/C: 39.8%
[17]
  viability, T/C: 34.5%
[18]
  viability, T/C: 33%
[19]
  viability, T/C: 20.6%
[20]
  viability, T/C: 27.6%
[21]
  viability, T/C: 33.4%
[22]
  viability, T/C: 39.4%
[23]
  viability, T/C: 35.9%
[24]
  viability, T/C: 33%
[25]
  viability, T/C: 20.9%
[26]
  viability, T/C: 26.1%
[27]
  viability, T/C: 31%
[28]
  viability, T/C: 34.8%
[29]
  viability, T/C: 37.6%
[30]
  viability, T/C: 31.2%
[31]
  viability, T/C: 19.1%
[32]
  viability, T/C: 27.5%
[33]
  viability, T/C: 29%
[34]
  viability, T/C: 36.2%
[35]
  viability, T/C: 40.2%
[36]
  viability, T/C: 32.2%

## CCc1c2c(nc3ccc(O)cc13)-c1cc3c(c(=O)n1C2)COC(=O)[C@]3(O)CC + CNC(=O)c1ccc(Nc2nc(OC3CCCC3)c3c(-c4ccc5nc(C)oc5c4)c[nH]c3n2)c(OC)c1
Second compound 0.0316 µM
  pIC50: 8.42
Second compound 0.1 µM
  pIC50: > 8.50
Second compound 0.316 µM
  pIC50: > 8.50
Second compound 1 µM
  pIC50: > 8.50
Second compound 3.16 µM
  pIC50: > 8.50
Second compound 10 µM
  pIC50: > 8.50
Second compound 0.0316 µM, first compound 0.00316 µM
  viability, T/C: 53.2%
Second compound 0.0316 µM, first compound 0.01 µM
  viability, T/C: 39.4%
[1]
  viability, T/C: 32.2%
[2]
  viability, T/C: 24.1%
[3]
  viability, T/C: 15.6%
[4]
  viability, T/C: 3.04%
Second compound 0.1 µM, first compound 0.00316 µM
  viability, T/C: 48.7%
Second compound 0.1 µM, first compound 0.01 µM
  viability, T/C: 35.8%
[7]
  viability, T/C: 27.9%
[8]
  viability, T/C: 24.6%
[9]
  viability, T/C: 17.4%
[10]
  viability, T/C: 3.12%
Second compound 0.316 µM, first compound 0.00316 µM
  viability, T/C: 39.6%
Second compound 0.316 µM, first compound 0.01 µM
  viability, T/C: 30.1%
[13]
  viability, T/C: 25.1%
[14]
  viability, T/C: 21.4%
[15]
  viability, T/C: 12.9%
[16]
  viability, T/C: 3.58%
Second compound 1 µM, first compound 0.00316 µM
  viability, T/C: 24.6%
Second compound 1 µM, first compound 0.01 µM
  viability, T/C: 20.5%
[19]
  viability, T/C: 17.6%
[20]
  viability, T/C: 15.6%
[21]
  viability, T/C: 9.88%
[22]
  viability, T/C: 3.65%
Second compound 3.16 µM, first compound 0.00316 µM
  viability, T/C: 23.6%
Second compound 3.16 µM, first compound 0.01 µM
  viability, T/C: 20.8%
[25]
  viability, T/C: 15.6%
[26]
  viability, T/C: 13%
[27]
  viability, T/C: 9.01%
[28]
  viability, T/C: 2.91%
Second compound 10 µM, first compound 0.00316 µM
  viability, T/C: 23.2%
Second compound 10 µM, first compound 0.01 µM
  viability, T/C: 18.8%
[31]
  viability, T/C: 17%
[32]
  viability, T/C: 13.4%
[33]
  viability, T/C: 10%
[34]
  viability, T/C: 3.01%

## COc1cccc2c1C(=O)c1c(O)c3c(c(O)c1C2=O)CC(O)(C(=O)CO)CC3OC1CC(N)C(O)C(C)O1 (stereo unspecified) + CNC(=O)c1ccc(Nc2nc(OC3CCCC3)c3c(-c4ccc5nc(C)oc5c4)c[nH]c3n2)c(OC)c1
Second compound 0.0316 µM
  pIC50: > 7.50
Second compound 0.1 µM
  pIC50: > 7.50
Second compound 0.316 µM
  pIC50: > 7.50
Second compound 1 µM
  pIC50: > 7.50
Second compound 3.16 µM
  pIC50: > 7.50
Second compound 10 µM
  pIC50: > 7.50
[1]
  viability, T/C: 32.9%
[2]
  viability, T/C: 32.3%
[3]
  viability, T/C: 25.3%
[4]
  viability, T/C: 17.2%
[5]
  viability, T/C: 3.45%
[6]
  viability, T/C: 0.92%
[7]
  viability, T/C: 38.2%
[8]
  viability, T/C: 33.7%
[9]
  viability, T/C: 23%
[10]
  viability, T/C: 18.9%
[11]
  viability, T/C: 2.48%
[12]
  viability, T/C: 1.28%
[13]
  viability, T/C: 32.2%
[14]
  viability, T/C: 28.5%
[15]
  viability, T/C: 16.5%
[16]
  viability, T/C: 12.8%
[17]
  viability, T/C: 2.83%
[18]
  viability, T/C: 0.97%
[19]
  viability, T/C: 25.2%
[20]
  viability, T/C: 18.7%
[21]
  viability, T/C: 11.8%
[22]
  viability, T/C: 7.57%
[23]
  viability, T/C: 1.43%
[24]
  viability, T/C: 0.99%
[25]
  viability, T/C: 18.7%
[26]
  viability, T/C: 16%
[27]
  viability, T/C: 13%
[28]
  viability, T/C: 6.9%
[29]
  viability, T/C: 0.62%
[30]
  viability, T/C: 1.17%
[31]
  viability, T/C: 22.2%
[32]
  viability, T/C: 14.7%
[33]
  viability, T/C: 10.7%
[34]
  viability, T/C: 6.9%
[35]
  viability, T/C: 0.98%
[36]
  viability, T/C: 1.5%
